Experiment [1] has as its target T1, Adrenergic receptor alpha-1 (Rattus norvegicus, UniProt P15823+P23944+P43140).
T1 sequence (P15823 whole entry): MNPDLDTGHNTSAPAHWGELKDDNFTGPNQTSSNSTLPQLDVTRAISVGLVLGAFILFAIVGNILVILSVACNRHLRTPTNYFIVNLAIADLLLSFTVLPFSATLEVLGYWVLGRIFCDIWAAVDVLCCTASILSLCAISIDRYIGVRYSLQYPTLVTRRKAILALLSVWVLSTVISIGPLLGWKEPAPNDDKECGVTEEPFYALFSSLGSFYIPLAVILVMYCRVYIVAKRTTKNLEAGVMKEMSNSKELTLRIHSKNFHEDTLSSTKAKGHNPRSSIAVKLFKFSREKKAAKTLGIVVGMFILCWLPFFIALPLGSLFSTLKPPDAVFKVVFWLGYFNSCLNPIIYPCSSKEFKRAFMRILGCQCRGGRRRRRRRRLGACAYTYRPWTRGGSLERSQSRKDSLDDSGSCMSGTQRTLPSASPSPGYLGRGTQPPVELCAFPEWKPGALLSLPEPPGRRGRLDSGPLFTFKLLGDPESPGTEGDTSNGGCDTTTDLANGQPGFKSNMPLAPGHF
T1 sequence (P23944 whole entry): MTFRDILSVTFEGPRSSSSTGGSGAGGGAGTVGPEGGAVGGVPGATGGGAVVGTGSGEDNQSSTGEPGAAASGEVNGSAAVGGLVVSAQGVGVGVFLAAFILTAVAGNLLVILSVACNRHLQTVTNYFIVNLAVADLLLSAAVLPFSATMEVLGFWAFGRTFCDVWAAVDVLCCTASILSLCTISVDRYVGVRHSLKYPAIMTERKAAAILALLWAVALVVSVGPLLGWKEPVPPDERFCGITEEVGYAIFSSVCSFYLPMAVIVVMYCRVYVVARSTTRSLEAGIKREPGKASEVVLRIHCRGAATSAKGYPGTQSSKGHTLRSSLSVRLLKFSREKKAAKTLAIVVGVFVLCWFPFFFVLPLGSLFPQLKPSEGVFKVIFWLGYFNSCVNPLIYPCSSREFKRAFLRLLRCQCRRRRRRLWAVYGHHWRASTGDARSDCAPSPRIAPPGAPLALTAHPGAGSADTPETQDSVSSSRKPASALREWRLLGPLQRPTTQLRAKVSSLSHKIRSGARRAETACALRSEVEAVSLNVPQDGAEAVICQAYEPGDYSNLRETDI
T1 sequence (P43140 whole entry): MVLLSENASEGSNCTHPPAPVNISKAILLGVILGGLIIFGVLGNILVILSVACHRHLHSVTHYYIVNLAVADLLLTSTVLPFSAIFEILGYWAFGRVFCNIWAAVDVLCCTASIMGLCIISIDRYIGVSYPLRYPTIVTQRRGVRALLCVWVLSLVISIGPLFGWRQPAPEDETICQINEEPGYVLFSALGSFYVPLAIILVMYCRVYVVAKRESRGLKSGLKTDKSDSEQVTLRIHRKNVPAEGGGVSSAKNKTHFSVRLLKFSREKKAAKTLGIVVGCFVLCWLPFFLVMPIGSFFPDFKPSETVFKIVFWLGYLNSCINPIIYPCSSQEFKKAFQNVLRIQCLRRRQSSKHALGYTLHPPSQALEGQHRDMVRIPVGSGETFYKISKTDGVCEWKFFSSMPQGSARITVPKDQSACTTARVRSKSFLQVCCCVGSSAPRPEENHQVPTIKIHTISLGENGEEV
Description: Concentration of compound for 50% displacement of [3H]WB-4101 from Alpha-1 adrenergic receptor of rat brain

The target of experiment [2] is Muscarinic acetylcholine receptor.
Description: Concentration of compound for 50% displacement of [3H]QNB from Muscarinic acetylcholine receptor in rat brain
For experiment [3], the species on record is Rattus norvegicus.
Description: (§1) Concentration of compound to inhibit 50% of [3H]-5-HT neurotransmitter uptake in rat brain
Experiment [4] is filed under the species Rattus norvegicus. The source holds these as a separate data set.
Description: (§2) Concentration of compound to inhibit 50% of [3H]norepinephrine neurotransmitter uptake in rat brain
Experiment [5] is filed under the species Rattus norvegicus. The experiment is described as follows: cells. The conditions noted are these: Brain, 3 h.
Description: as §1
The target in experiment [6] is Dopamine receptor. The experiment is described as follows: Concentration of compound for 50% displacement of [3H]spiperone from Dopamine receptor in rat brain. The format is tissue-based. Background: Loss of bound radioactivity is the signal in a displacement assay; it reports binding, not function.
Experiment [7] is filed under the species Rattus norvegicus. The experiment is described as follows: cells. The conditions noted are these: Brain, 3 h. The source holds these as a separate data set.
Description: as §2

What is called IC50 is the midpoint of a concentration-inhibition curve.

As to `CN1CCC2c3cccc4c3N(CC2C1)c1ccccc1CC4` (trans isomer), the IC50 in experiment [1] stood at 1760 nM; in experiment [2], 449 nM; in experiment [3], 14200 nM; in experiment [4], 1250 nM.
In the case of `CN1CCC2c3cccc4c3N(CC2C1)c1ccccc1CC4` (stereo in doubt), the IC50 was determined as 445 nM in experiment [1], 2240 nM in experiment [2], 3540 nM in experiment [4] and 19600 nM in experiment [5].
Regarding `CN(C)CCCN1c2ccccc2CCc2ccccc21` [IMIPRAMINE], the IC50 in experiment [6] came out at 645 nM; in experiment [2], 269 nM; in experiment [5], 384 nM; in experiment [7], 169 nM.

(Values after ChEMBL document CHEMBL1121635 (J Med Chem, 1980).)
